Values joined by “and” are separate entries in the source; they are usually repeats but may differ in a detail not shown here. Equal entries are not always repeated.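 Method: 48-hour compound exposure of cells in 96-well plates, five concentrations, linear interpolation of endpoints. GI50 is the concentration that inhibits growth by half. TGI is the concentration that stops growth completely.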
Key:
Assay in all cases: growth of human tumour cells (NCI), 48 h
CAKI-1 renal = system: CAKI-1 renal
CCRF-CEM leukemia = system: CCRF-CEM leukemia
HT29 colon = system: HT29 colon
IGROV1 ovarian = system: IGROV1 ovarian
KM12 colon = system: KM12 colon
RXF 393 renal = system: RXF 393 renal
SF-295 CNS = system: SF-295 CNS
SK-MEL-5 melanoma = system: SK-MEL-5 melanoma
SN12C renal = system: SN12C renal
SW-620 colon = system: SW-620 colon

Row | Structure (SMILES) | GI50 (CAKI-1 renal) | TGI (CAKI-1 renal) | GI50 (CCRF-CEM leukemia) | TGI (CCRF-CEM leukemia) [µM] | GI50 (HT29 colon) | TGI (HT29 colon) [µM] | GI50 (IGROV1 ovarian) | TGI (IGROV1 ovarian) | GI50 (KM12 colon) | TGI (KM12 colon) | GI50 (RXF 393 renal) | TGI (RXF 393 renal) | GI50 (SF-295 CNS) | TGI (SF-295 CNS) | GI50 (SK-MEL-5 melanoma) | TGI (SK-MEL-5 melanoma) | GI50 (SN12C renal) | TGI (SN12C renal) | GI50 (SW-620 colon) | TGI (SW-620 colon)
1 | COc1ccc(/C=C/C(=O)c2ccc(B(O)O)cc2)cc1O | 17.7 µM | > 70.8 µM | 7.23 µM | 44.4 | 8.22 µM | > 60.4 | 12.5 µM | > 54.4 µM | 3.96 µM | 15 µM | 11.5 µM | 39.6 µM | 15.1 µM | 56.5 µM | 14.6 µM | 37.5 µM | 20.1 µM | > 77.7 µM | 3.83 µM | 22 µM
2 | Cc1cc2c(=O)cc(-c3ccc(Cl)cc3Cl)oc2c(C(=O)O)c1C | – | > 100 µM | – | > 100 | – | > 100 | – | > 100 µM | – | > 100 µM | – | > 100 µM | – | > 100 µM | – | > 100 µM | – | > 100 µM | – | > 100 µM
3 | COc1ccc2c(c1)OC(N)=C(C#N)C2c1ccc(F)c(F)c1 (stereo not given) | 0.394 µM | > 100 µM | 0.409 µM | > 100 | 0.318 µM | 4.77 | 0.715 µM | > 100 µM | 0.349 µM | 26 µM | 0.365 µM | 5.57 µM | 0.393 µM | > 52.4 µM | 0.415 µM | 29.7 µM | 0.718 µM | > 70.6 µM | 0.398 µM | > 100 µM
4 | CCC(CO)COC(=O)/C=C/C(=O)OCC(CC)CO (stereo not given) | – | > 100 µM | – | > 82.6 | – | > 100 | – | > 100 µM | – | > 100 µM | – | > 100 µM | – | > 100 µM | – | > 100 µM | – | > 100 µM | – | > 100 µM
5 | CN1CCN(C(=O)OCc2nc3c(N4CCOCC4)nc(-c4ccccc4)nc3n2C)CC1 | 0.471 µM | 1.83 µM | 0.321 µM | 1.57 | 0.512 µM | 2.24 | 0.632 µM | 2.03 µM | 1.55 µM | 3.53 µM | 0.687 µM | 1.98 µM | 1.58 µM | 2.96 µM | 1.5 µM | 2.85 µM | 0.814 µM | 2.12 µM | 0.329 µM | 1.19 µM
6 | O=[N+]([O-])c1cccc(C=NC23CC4CC(CC(C4)C2)C3)c1 | – | > 100 µM | – | > 100 | – | > 100 | – | > 100 µM | – | > 100 µM | – | > 100 µM | – | > 100 µM | – | > 100 µM | – | > 100 µM | – | > 100 µM
7 | O=C(CSc1nc2ccc([N+](=O)[O-])cc2[nH]1)Nc1ccc([N+](=O)[O-])cc1 | 2.08 µM | 7.67 µM | 2.48 µM | > 100 | 2.82 µM | 10.6 | 2.71 µM | 15.2 µM | 2.65 µM | 12.9 µM | 1.95 µM | 7.24 µM | 2.03 µM | 6.43 µM | 1.2 µM | 2.54 µM | 2.26 µM | 10.6 µM | 3.24 µM | 17.6 µM
8 | Nc1nc(N)c2cc(Sc3ccc(Cl)cc3)ccc2n1 | 3.25 µM | 16.1 µM | 0.815 µM | 17.4 | 0.516 µM | 2.4 | 0.874 µM | 18.7 µM | 1.34 µM | 4.32 µM | 1.03 µM | 7.78 µM | 0.63 µM | 15.2 µM | 0.762 µM | 2.06 µM | 2.91 µM | 17.9 µM | 0.306 µM | 1.63 µM
9 | Clc1ccc(Nc2ncnc3ccccc23)cc1 | 13.1 µM | 61.1 µM | 48.8 µM | > 100 | 55.3 µM | > 100 | 12.9 µM | > 100 µM | 47.7 µM | > 100 µM | 47.7 µM | > 100 µM | 37.9 µM | > 100 µM | 21.6 µM | 56.1 µM | 23 µM | 73.1 µM | > 100 µM | > 100 µM
10 | COc1cccc(Nc2ncnn3ccc(CN4CC[C@@H](N)[C@H](O)C4)c23)c1 | 0.2 µM and 0.242 µM | 2.52 µM and > 4.35 µM | 25.2 µM and > 4.58 µM | > 100 | 8.67 µM and > 2.25 µM | > 56.6 | 0.407 µM and 0.0561 µM | 6.79 µM and 2.73 µM | 3.31 µM and 2.88 µM | 15.3 µM and > 10 µM | 0.601 µM and 0.405 µM | 5.11 µM and 2.41 µM | 12.2 µM and > 5.6 µM | 45.5 µM and > 10 µM | 14.5 µM and > 5.6 µM | 27.8 µM and > 10 µM | 0.265 µM and 0.304 µM | 18.5 µM and > 10 µM | 17.7 µM and > 4.35 µM | 44.5 µM and > 10 µM
11 | NS(=O)(=O)c1ccc(N=Nc2c(O)[nH]c3cccc(CCc4ccncc4)c23)cc1 | > 25 µM | > 25 µM | > 25 µM | > 25 | > 25 µM | > 25 | > 25 µM | > 25 µM | > 25 µM | > 25 µM | > 25 µM | > 25 µM | > 25 µM | > 25 µM | > 25 µM | > 25 µM | > 25 µM | > 25 µM | > 25 µM | > 25 µM
12 | CCN1C2=C(SC(=S)C1=C1SC(C(=O)c3ccccc3)=C(C(=O)c3ccccc3)S1)SC(=Nc1ccccc1)C2=O | 48 µM | > 100 µM | 0.633 µM | > 100 | 16.5 µM | > 100 | 23 µM | > 100 µM | 51 µM | > 100 µM | 9.09 µM | > 45.3 µM | 11.3 µM | > 90.7 µM | > 70.8 µM | > 100 µM | 46 µM | > 100 µM | 1.14 µM | 8.38 µM
13 | CC(C)c1ccc2c(c1)CCC1C(C)(CN)CCCC21C (stereo not given) | – | 2.96 µM | – | 3.92 | – | 2.39 | – | 2.93 µM | – | 3.34 µM | – | 2.98 µM | – | 3.34 µM | – | 3.17 µM | – | 3.16 µM | – | 2.9 µM
14 | CNC(=O)N(CCCC(NC(C)=O)C(=O)NCc1ccccc1)Cc1ccccc1 (stereo not given) | – | > 100 µM | – | > 100 | – | > 100 | – | > 100 µM | – | > 100 µM | – | > 100 µM | – | > 100 µM | – | > 100 µM | – | > 100 µM | – | > 100 µM

— PubChem BioAssay (NCI)
